Data published in US11612576B2 (Thiogenesis Therapeutics, Inc., priority 2017, dated 2023).
Where a name gives a salt, the structure may show the parent alone. Read-outs that look alike come from different tables or passages of the source.

Assays:
[1] = in vivo; cited from earlier work
[2] = Physical characteristics of TTI-0102 salt forms; type: physicochemical; details: compared with free base
Method: TTI-0102 was prepared as in Example 14. The crude product was obtained by evaporation of water and DMF. The residue was suspended in ethyl acetate/water; precipitated dicyclohexylurea (DCU) was filtered off. The solution was evaporated and suspended in methanol. The precipitate (unreacted pantothenic acid) was filtered off. The filtrate was concentrated and then dissolved in a small volume of methanol. After addition of dichloromethane the cystamine hydrochloride precipitated and was filtered off. After evaporation of solvent, the residue was crystallized from methanol:acetone (1:10) to provide TTI-1 hydrochloride.
The tartrate salt was formed and crystallized from a MeOH:DCM mixture. The solid form was filtered off (precipitate) and filtrate was evaporated.

[3] = Cysteamine and pantetheine in rat gastrointestinal contents six hours after dosing (Example 13); type: in vivo, Sprague-Dawley rats
Method: In addition to the plasma samples, gastrointestinal contents (stomach contents, proximal small intestinal contents, distal small intestinal contents and cecum/colon contents) were obtained from rats at the end of the study (6 hours after dosing) and snap frozen. Tissue levels of cysteamine and pantetheine were measured in the gastrointestinal contents. The protocol for tissue analysis entailed (i) smashing frozen tissue fragments over dry ice to obtain small pieces; (ii) weighing several frozen tissue pieces (˜[…]) into a tared 1.5 ml microcentrifuge tube with two metal ball bearings and immediately storing on dry ice; (iii) homogenizing tissue fragments cryogenically using a Retsch Cryomill at 250 hertz for 5 minutes; (iv) thawing each sample on ice, adding two volumes of water (w:v., i.e. 2 microliters of water were added for each milligram of homogenized tissue) to make an approximately 1:3 dilution; (v) removing 20 ul of the resuspended tissue powder to a new tube, adding 2.2 ul of 50 mM TCEP (5 mM final concentration) and incubating for 45 minutes at 37 degrees C. (TCEP treated samples), or adding 2.2 ul of deioinized water in place of TCEP (no TCEP samples); (vi) adding 3.5 volumes of acetonitrile:0.1% formic acid, vortex mixing for 15 seconds, and then pelleting precipitated protein by centrifugation for 10 minutes at 14,000 rpm in a microcentrifuge at 4 degrees C.; (vii) transferring 25 ul of supernatant to a new tube containing 75 ul of ACN/0.1% FA; (vii) injecting samples on the LC-MS apparatus described above, using the same column and run conditions as for plasma samples.

[4] = Dissolution of the dose in saline before gavage; type: physicochemical; details: 120 mg/kg dose (311.68 mg/kg compound 2) in 3 milliliters of saline
[5] = molecular target: T1, tissue transglutaminase (transglutaminase 2, TG2) (Homo sapiens, UniProt P21980); details: cited from earlier work
T1 sequence (P21980 1-687): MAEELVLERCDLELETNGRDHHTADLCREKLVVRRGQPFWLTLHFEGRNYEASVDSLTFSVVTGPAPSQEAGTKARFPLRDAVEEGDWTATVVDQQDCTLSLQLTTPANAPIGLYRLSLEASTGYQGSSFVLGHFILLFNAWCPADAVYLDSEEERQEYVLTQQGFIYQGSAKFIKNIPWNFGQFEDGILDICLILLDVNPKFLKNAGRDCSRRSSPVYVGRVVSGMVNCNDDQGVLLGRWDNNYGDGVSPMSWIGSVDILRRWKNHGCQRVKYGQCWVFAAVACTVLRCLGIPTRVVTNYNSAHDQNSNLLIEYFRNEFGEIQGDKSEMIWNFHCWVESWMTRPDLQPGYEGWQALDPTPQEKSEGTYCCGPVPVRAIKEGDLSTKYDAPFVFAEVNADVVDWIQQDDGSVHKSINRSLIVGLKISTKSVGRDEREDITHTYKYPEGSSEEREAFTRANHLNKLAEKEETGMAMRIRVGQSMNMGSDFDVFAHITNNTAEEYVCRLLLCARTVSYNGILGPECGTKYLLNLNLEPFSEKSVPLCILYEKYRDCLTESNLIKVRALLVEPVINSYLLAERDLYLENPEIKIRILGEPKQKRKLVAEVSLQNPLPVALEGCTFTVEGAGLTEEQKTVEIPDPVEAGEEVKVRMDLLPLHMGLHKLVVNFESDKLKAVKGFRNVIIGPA

mouse models of HD = details: cited from earlier work
[6] = rat, in vivo
Method: Thus in the discussion below, and in the accompanying figures, a “30 mg/kg” dose of TTI-0102 means 68.73 mg/kg was administered, a “60 mg/kg” dose of TTI-0102 means 137.46 mg/kg was administered and a “100 mg/kg” dose of TTI-0602 (aka compound 2) means 229.1 mg/kg was administered.
Each of the four compounds was administered via gavage to three male Sprague-Dawley rats weighing approximately 300 grams. All doses were dissolved in 2.5 milliliters of saline.
Blood samples were obtained from rats immediately after dosing (within one minute) and 10, 20, 30, 45, 60, 90, 120, 180, 240, 300 and 360 minutes after dosing via carotid artery catheters surgically implanted before the PK study. Plasma was obtained from blood by centrifugation, snap frozen and stored at −80 degrees Celsius. Several days later plasma samples were thawed on ice and each aliquoted to two paired tubes (20 μL per tube), one of which was processed for measurement of thiols (after quantitative disulfide bond reduction), while the other was processed for analysis of disulfides.
Briefly, 2.2 ul of freshly prepared 50 mM TCEP stock solution was added to 20 ul of plasma and the sample incubated at 37 degrees C. for 45 minutes. The volume of plasma in the paired (non-reduced) sample was adjusted by adding 2.2 ul of deionized water.
After the TCEP reduction step all plasma samples were deproteinized by adding 3.5 volumes of ice cold acetonitrile (ACN)/1% formic acid (FA) solution containing internal standards (77 μL of ACN/1% FA solution was added to 22.2 μL of plasma).
The denatured protein was pelleted by centrifugation at 14,000 rpm for 10 minutes at 4 degrees C. in a microcentrifuge. The supernatant (25 ul) was removed to a new tube, mixed with 75 ul of ACN/0.1% FA solution and injected directly into a 150×2 mm Atlantis hydrophilic interaction liquid chromatography (HILIC) column (Waters; Milford, Mass.). Metabolites were analyzed using a Nexera X2 U-HPLC (Shimadzu) and a Q-Exactive hybrid quadrupole Orbitrap mass spectrometer (Thermo Fisher Scientific). […]

[7] = Rat pharmacokinetic study of compound 2: plasma cysteamine after gavage; type: in vivo, Sprague-Dawley rats; details: cysteamine HCl, 30 mg/kg cysteamine base
Method: The compound 2 doses were prepared for 250 gram rats, but the actual masses of the rats at the time of drug administration varied from 267-300 grams, so the actual doses, normalized to body weight, ranged from 26.1-27.1 mg/kg in group 1, 51.7-56.2 mg/kg in group 2 and 108.3-109.5 mg/kg in group 3. Nonetheless, for convenience those doses are referred to as 30, 60 and 120 mg/kg.
Plasma was obtained from blood by centrifugation and snap frozen.

[8] = cited from earlier work
[9] = test system: CYP1A2, CYP2A6, CYP2B6, CYP2C8, CYP2C9, CYP2C19, CYP2D6, CYP2E1 and CYP3A4; details: in vitro; cited from earlier work
kidney fibrosis = details: ureteral stenosis and renal ischemia/reperfusion injury; cited from earlier work
[10] = test system: CYP1A2, CYP2B6, CYP2C8, CYP2C9, CYP2C19, CYP2D6, CYP2E1, CYP2A6, CYP3A4; details: in vitro; cited from earlier work
[11] = test system: matrix metalloproteinases (MMPs); details: high concentrations (e.g. 25 millimolar); cited from earlier work
xenograft models = details: cited from earlier work
Plasmodium Falciparum = details: in vitro and in mouse models of malaria; cited from earlier work
[12] = test system: P-gp, OCT2, BCRP, OATP1B1, OATP1B3, OAT1, OAT3, OCT1; details: in vitro; cited from earlier work
Pseudomonas aeruginosa = details: cited from earlier work
[13] = test system: erythrocytes from sickle cell anemia patients; details: cited from earlier work

SMILES: CC(C)(COP(=O)(O)O)[C@@H](O)C(=O)NCCC(=O)NCCS [4-phosphopantetheine]
- half life in blood [1]: over 3 hours

SMILES: CC(C)(CO)[C@@H](O)C(=O)NCCC(=O)NCCSSCCN [acetate salt of TTI-0102]
- stability of salt form [2]: more stable than the free base

SMILES: CC(C)(CO)[C@@H](O)C(=O)NCCC(=O)NCCSSCCN [compound 1, cysteamine-(R)-pantetheine disulfide]
- fraction of small intestinal pantetheine in the form of the thiol ([3]; compound 1 100 mg/kg, no TCEP vs TCEP samples): about half
- pantetheine at all levels of the gastrointestinal tract (stomach, proximal and distal small intestine, colon) ([3]; compound 1 100 mg/kg, six hours after dosing): high levels of pantetheine are present
- colon contents (TCEP reduced) ([3]; compound 1, six hours after dosing): high concentrations of both cysteamine and pantetheine

SMILES: CC(=O)NCCSSCCNC(=O)CCNC(=O)[C@H](O)C(C)(C)CO [compound 2, N-acetylcysteamine-(R)-pantetheine disulfide]
- dissolution of dose in saline [4]: did not completely dissolve in saline

SMILES: NCCSSCCN [cystamine]
- inhibition of tissue transglutaminase (TG2) [5]: TG2 inhibitor
- effects in several mouse models of Huntington's disease (mouse models of HD; mouse, in vivo): improves motor function and extends life-span

SMILES: Cl.NCCS [cysteamine HCl, cysteamine hydrochloride]
- time in which half of the dose is absorbed [6]: one
- time of peak observed concentration after gavage [6]: 10 min
- Cmax ([6]; 30 mg/kg): ~55.3 µM
- peak plasma cysteamine concentration [7]: over 200 uM
- time by which cysteamine concentration declined to less than half maximal [7]: ≤ 90 min

SMILES: NCCS [cysteamine bitartrate]
- Cmax ([8]; read-out: C max of cysteamine, cysteamine bitartrate 20 mg/kg cysteamine base equivalent): 81.9 µM

SMILES: NCCS.O=C(O)C(O)C(O)C(=O)O (stereo not shown) [cysteamine bitartrate]
- fraction of cysteamine eliminated by 150 minutes (inferred) ([8]; cysteamine bitartrate 20 mg/kg): over 95%
- time by which cysteamine levels returned to baseline ([8]; cysteamine bitartrate 20 mg/kg): ≤ 2 h
- tissue half life of cysteamine ([8]; cysteamine bitartrate 20 mg/kg): 25 to 29 min

SMILES: NCCS [cysteamine, 2-aminoethanethiol]
- inhibition of CYP1A2, CYP2A6, CYP2B6, CYP2C8, CYP2C9, CYP2C19, CYP2D6, CYP2E1 and CYP3A4 [9]: not an inhibitor
- efficacy in mouse models of kidney fibrosis (kidney fibrosis): effective
- metabolism by CYP1A2, CYP2B6, CYP2C8, CYP2C9, CYP2C19, CYP2D6 and CYP2E1 [10]: likely to be metabolized by multiple CYP enzymes
- metabolism by CYP2A6 or CYP3A4 [10]: not by CYP2A6 or CYP3A4
- inhibition of tissue transglutaminase (TG2) [5]: inhibits
- half life in blood [1]: about 25 minutes
- inhibition of matrix metalloproteinases [11]: inhibits
- survival of mice (xenograft models): prolonged survival of mice in a dose-dependent manner without toxicity
- proliferation of Plasmodium Falciparum (Plasmodium Falciparum): inhibits proliferation
- substrate of BCRP, OATP1B1, OATP1B3, OAT1, OAT3 and OCT1 [12]: not a substrate
- substrate of P-gp and OCT2 [12]: is a substrate
- beneficial effects in R6/2 HD mouse model (mouse models of HD; R6/2 mouse model): amelioration of weight loss and motor abnormalities, and prolongation of survival
- activity against Pseudomonas aeruginosa and other CF pathogens (Pseudomonas aeruginosa): bactericidal
- sickling under hypoxic conditions [13]: marked inhibition of sickling
